Publication PMC6269769, “Novel Conformationally Constrained Analogues of Agomelatine as New Melatoninergic Ligands” (Molecules, 2012)
Counter-ions that a name gives are not always drawn.

Key:
[1] = target: T1, human melatonin MT1 receptor (Homo sapiens, UniProt P48039); experiment: […]-[…]iodomelatonin displacement, CHO membranes; type: binding
T1 construct: gene MTNR1A; receptor stably expressed in transfected CHO cells, membrane preparation

[2] = target: T2, human melatonin MT2 receptor (Homo sapiens, UniProt P49286); experiment: […]-[…]iodomelatonin displacement, CHO membranes; type: binding
T2 construct: gene MTNR1B; receptor stably expressed in transfected CHO cells, membrane preparation
T2 sequence (P49286 1-362): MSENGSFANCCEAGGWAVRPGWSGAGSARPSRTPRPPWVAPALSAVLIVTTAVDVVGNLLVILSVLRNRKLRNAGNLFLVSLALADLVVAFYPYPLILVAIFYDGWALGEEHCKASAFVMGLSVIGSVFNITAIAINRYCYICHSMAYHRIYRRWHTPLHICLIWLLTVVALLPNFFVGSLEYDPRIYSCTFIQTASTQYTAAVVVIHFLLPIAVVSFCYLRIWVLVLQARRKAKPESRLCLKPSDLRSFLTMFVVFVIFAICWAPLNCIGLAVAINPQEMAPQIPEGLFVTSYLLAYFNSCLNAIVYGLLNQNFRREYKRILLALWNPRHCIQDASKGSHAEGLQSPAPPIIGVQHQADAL

T1 sequence (P48039 whole entry): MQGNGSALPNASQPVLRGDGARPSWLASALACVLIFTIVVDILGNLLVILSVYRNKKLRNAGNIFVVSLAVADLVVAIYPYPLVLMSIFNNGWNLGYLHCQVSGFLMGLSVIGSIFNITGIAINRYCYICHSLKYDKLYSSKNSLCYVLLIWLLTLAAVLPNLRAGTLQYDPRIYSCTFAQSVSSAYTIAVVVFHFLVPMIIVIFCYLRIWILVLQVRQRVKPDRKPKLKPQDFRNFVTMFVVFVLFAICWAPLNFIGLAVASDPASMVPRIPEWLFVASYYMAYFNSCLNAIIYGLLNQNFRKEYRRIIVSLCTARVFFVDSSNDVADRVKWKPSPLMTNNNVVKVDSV

Compound | Ki [1] | Ki [2]
COc1ccc2cccc(CC3NC(=O)NC3=O)c2c1 (stereo not shown) [compound 12, 5-[(7-Methoxynaphth-1-yl)methyl]-imidazolidin-2,4-diones] | 2170 ± 63 nM | 141 ± 31 nM
COc1ccc2cccc(CC3=NOS(=O)N3)c2c1 (stereo not shown) [compound 3, 4-[(7-Methoxynaphth-1-yl)methyl]-3H-1,2,3,5-oxathiadiazole 2-oxide] | > 1000 nM | 1300 nM
COc1ccc2cccc(CCNc3ncc(C)s3)c2c1 [compound 14, 2-[2-(7-Methoxynaphth-1-yl)ethylamino]-5-methyl-1,3-thiazole] | 389 ± 121 nM | 354 ± 32 nM
COc1ccc2ccc3c(c2c1)CCN(C(C)=O)C3 [9b, 1-(9-Methoxy-1,2,3,4-tetrahydro-benzo[f]isoquinolein-3-yl)ethanone] | 3000 ± 27 nM | 800 ± 59 nM
COc1ccc2cccc(CCN3CCOC3=O)c2c1 [7a] | 113 ± 18 nM | 6 ± 0.2 nM
COc1ccc2cccc3c2c1CN(C(C)=O)CC3 [9a, 1-(10-Methoxy-1,2,3,4-tetrahydro-naphto[1,8-cd]azepin-2-yl)ethanone] | 2500 ± 57 nM | 469 ± 44 nM
COc1ccc2cccc(Cc3nn[nH]n3)c2c1 [compound 5, 5-(7-Methoxynaphth-1-ylmethyl)-1H-tetrazole] | 380 ± 114 nM | 190 ± 84 nM

These reach a lower Ki [1]. Values come first.

Ki [1] | Ki [2] | Compound
80 ± 16 nM | 25.2 ± 10.7 nM | COc1ccc2cccc(Cc3noc(=O)[nH]3)c2c1 [compound 4, 3-[(7-Methoxynaphth-1-yl)methyl]-1,2,4-oxadiazole-5(4H)-one]
68.5 ± 18.2 nM | 2.1 ± 0.01 nM | COc1ccc2cccc(CCN3CCCC3=O)c2c1 [7b]
48.4 ± 11.2 nM | 20.3 ± 3.9 nM | COc1ccc2cccc(CCNc3cc(C)on3)c2c1 [compound 15, 3-[2-(7-Methoxynaphth-1-yl)ethylamino]-5-methyl-1,2-isoxazole hydrochloride]
33.9 ± 8.1 nM | 12.5 ± 0.4 nM | COc1ccc2cccc(CCNc3nccs3)c2c1 [compound 13, 2-[2-(7-Methoxynaphth-1-yl)]-ethylamino]-1,3-thiazole hydrochloride]
